Laboratory results: patent US8436004B2, “Bicycloaniline derivative” (MSD K.K., priority 2007, dated 2013)
Structures can show the parent of a compound that is named as a salt.

Tested on: Human colon cancer cells WiDr
Experiment: Tumor growth inhibitory effect, WiDr subcutaneous xenograft in nude rats
Type: in vivo, F344/N Jcl-rnu nude rats
Conditions: gemcitabine 5 mg/kg i.v. days 0, 7, 14, Example 1 15 mg/kg oral days 1, 8, 15, n=5
Protocol: Pharmacological Test 4 (Tumor Growth Inhibitory Effect)
Human colon cancer cells WiDr (obtained from ATCC) were implanted into the subcutaneous area of the back of F344/N Jcl-rnu nude rats. 12 days after the implantation, 5 mg/kg of gemcitabine (Gemzar, from Eli Lily) was intravenously administered to them; and after 24 hours, a test compound suspended in a solvent (0.5% methyl cellulose) was orally administered thereto. This was repeated once a week for 3 weeks. The tumor volume (0.5×major diameter×(minor diameter)^2) was measured on days 0, 3, 6, 10, 13, 17, 20, 24 and 27 (the first gemcitabine administration is on day 0). The relative tumor volume was calculated, based on the tumor volume on day 0, as 1. The tumor growth rate (% T/C) was obtained according to the formulae mentioned below.
In case where the tumor volume change from day 0 in the test compound administration group is more than 0 (>0): % T/C=(tumor volume change in the test compound group on days 3, 6, 10, 13, 17, 20, 24 and 27/tumor volume change in the control group on days 3, 6, 10, 13, 17, 20, 24 and 27)×100. In case where the tumor volume change from day 0 in the test compound administration group is less than 0 (<0): % T/C=(tumor volume change in the test compound group on days 3, 6, 10, 13, 17, 20, 24 and 27/tumor volume […] in the test compound group on day 0)×100.
Gemcitabine was administered on days 0, 7 and 14. The compound of Example 1 was administered on days 1, 8 and 15.

CN1Cc2cc(Nc3ncc4c(=N)n(-c5c(Cl)cccc5Cl)c(=O)[nH]c4n3)ccc2C2(CC2)C1 [Example 1, 3-(2,6-dichlorophenyl)-4-imino-7-[(2′-methyl-2′,3′-dihydro-1′H-spiro[cyclopropane-1,4′-isoquinolin]-7′-yl)amino]-3,4-dihydropyrimido[4,5-d]pyrimidin-2(1H)-one dihydrochloride] was tested, and the “% T/C day 3” value (day 3) was 107%, the “% T/C day 6” value (day 6) was 100% and the “% T/C day 10” value (day 10) was 87%. For the same compound, the “% T/C day 13” value (day 13) was 91%, the “% T/C day 17” value (day 17) was 88% and the “% T/C day 20” value (day 20) was 85%. For the same compound, the “% T/C day 24” value (day 24) was 83% and the “% T/C day 27” value (day 27) was 88%.
